Test results published in patent US12209074B2, “SHP2 phosphatase allosteric inhibitor” (BEIJING SHENOGEN PHARMA GROUP LTD., priority 2019, dated 2025).

Legend:
SHP2 = SHP2 (Homo sapiens (Human), UniProt Q06124); test: Detection of in vitro SHP2 protein activity by DiFMUP fluorescence; assay type: biochemical; settings: read-out: Phosphatase activity SHP2 IC50; DiFMUP substrate, fluorescence Ex340/Em450, 60 min pre-incubation with polypeptide; read-out: Proteinase activity SHP2 IC50
From the text: The screening method of SHP2 protein activity was established by fluorescence detection. The basic principle is: SHP2 as phosphatase can catalyze the dephosphorization of DiFMUP to form DiFMU and free phosphate groups. The product DiFMU emits fluorescence under 340 nm excitation, and 450 nm emission is collected. If the binding of small molecule compounds with SHP2 can inhibit the activity of SHP2 enzyme, the 450 nm emission light detected will be weakened, and the activity of SHP2 enzyme will be finally reflected by the intensity of fluorescence value.
The specific operation was as follows: the 10 mM compound stock solution was diluted to 1 mM with DMSO, and then diluted 3 times with DMSO. 95 μL reaction buffer (60 mM HEPES), 75 mM NaCl, 75 mM KCl, 1 mM EDTA, 5 mM DTT, 1 μL gradient diluted compound, 2 μL SHP2 (concentration was 2 μg/μL) and 1 μL polypeptide (concentration was 50 mM) were added into each well of a 96 well flat clear bottom black plate (costar, 3603). The above test mixture was incubated at room temperature in dark for 60 minutes. Then 2 μL of 10 mM DiFMUP was added into each well, and was incubated at room temperature for 30 minutes. Fluorescence value was determined in the enzyme reader at Ex340/Em450. IC50 of the compounds was obtained by the data analysis software Prism.

[1] = test system: Human non-small cell lung cancer NCI-H358; test: Cell proliferation assay (CellTiter-Glu) in NCI-H358; assay type: cell-based; settings: 5 days, NCI-H358 cells, cell viability by CellTiter-Glu, compound 0.3 nM-2 μM, medium and compound renewed after 3 days
Experimental: Cell proliferation inhibition screening method was established by CellTier-Glu® test reagent from Promega.
Human non-small cell lung cancer NCI-H358 was cultured by RPMI-1640 (Gibco®) medium with 10% fetal bovine serum (Gibco®) at 37° C., 95% air and 5% CO2, in 25 cm^2 or 75 cm^2 plastic culture bottle ((Nunc®) and passaged 2-3 times a week.
The cells were seeded on the 96 well cell culture plate (Nunc®) at the density of 2*10^3/well, 90 μL/well, and cultured at 37° C., 95% air and 5% CO2. The compound to be tested was added 24 hours later: the compound was diluted 3 times with DMSO from the concentration of 2 mM compound (dissolved in DMSO). […] 10 μL of the compound diluted by culture medium was added into the culture plate seeded with cells. The final concentration of DMSO in cell culture medium was 0.1%, and the final concentration of test compound was 0.3 nM-2 μM. The cells were incubated at 37° C. for 3 days. The culture medium was substituted with 90 μL/well fresh complete medium. According to the above diluting method of compounds, the compound to be tested was added.
After 5 days, cell viability was tested by CellTiter-Glu (Promega) kit, and finally, the semi-inhibitory concentration of compounds on cell proliferation, i.e. IC50 was calculated by Prism program.

hERG channel = hERG channel (Homo sapiens (Human), UniProt Q12809); test: hERG inhibitory activity, whole cell patch clamp in hERG-transfected HEK293 cells; assay type: cell-based; settings: HEK293 cells transfected with hERG, tail current, tested at 30, 10, 2, 0.5, 0.1 μM
hERG channel, sequence (Q12809 whole entry): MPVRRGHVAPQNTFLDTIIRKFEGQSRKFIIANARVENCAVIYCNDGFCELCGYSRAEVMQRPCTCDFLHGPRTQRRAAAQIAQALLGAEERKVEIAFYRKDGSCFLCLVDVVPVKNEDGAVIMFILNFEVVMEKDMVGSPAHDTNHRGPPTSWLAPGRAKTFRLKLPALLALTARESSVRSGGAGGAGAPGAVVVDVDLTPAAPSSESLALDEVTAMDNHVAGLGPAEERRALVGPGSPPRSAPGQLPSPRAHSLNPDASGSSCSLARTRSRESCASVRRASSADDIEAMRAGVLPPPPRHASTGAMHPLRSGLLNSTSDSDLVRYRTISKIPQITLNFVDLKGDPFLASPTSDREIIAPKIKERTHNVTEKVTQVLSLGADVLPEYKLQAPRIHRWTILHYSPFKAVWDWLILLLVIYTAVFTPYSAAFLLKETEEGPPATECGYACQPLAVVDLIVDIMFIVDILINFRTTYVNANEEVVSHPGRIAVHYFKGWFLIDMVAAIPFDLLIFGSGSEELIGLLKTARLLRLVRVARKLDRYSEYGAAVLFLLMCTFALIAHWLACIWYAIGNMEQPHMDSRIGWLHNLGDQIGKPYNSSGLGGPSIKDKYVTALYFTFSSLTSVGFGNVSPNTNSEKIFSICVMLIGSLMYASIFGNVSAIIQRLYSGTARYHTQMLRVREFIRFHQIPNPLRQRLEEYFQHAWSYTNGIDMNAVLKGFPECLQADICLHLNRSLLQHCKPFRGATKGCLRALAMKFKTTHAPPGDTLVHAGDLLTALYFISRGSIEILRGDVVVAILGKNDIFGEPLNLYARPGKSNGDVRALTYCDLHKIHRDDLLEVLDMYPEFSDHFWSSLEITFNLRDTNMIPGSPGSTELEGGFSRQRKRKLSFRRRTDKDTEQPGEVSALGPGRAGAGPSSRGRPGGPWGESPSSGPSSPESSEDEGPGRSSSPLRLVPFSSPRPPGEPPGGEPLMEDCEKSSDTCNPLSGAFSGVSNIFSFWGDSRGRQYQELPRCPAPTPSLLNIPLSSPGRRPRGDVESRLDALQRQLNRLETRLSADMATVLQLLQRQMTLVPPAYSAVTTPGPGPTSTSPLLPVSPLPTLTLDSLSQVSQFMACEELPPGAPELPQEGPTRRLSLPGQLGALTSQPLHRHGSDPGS
Experimental: Patch Clamp Amplifier System (Multiclamp 700B Amplifier) (AXON), Olympus microscope (Olympus IX51/71/73), and MP285 micromanipulator were used.
HEK293 cell line for transfecting hERG was purchased from Invitrogen Company. The cells were grown in the culture medium with 85% DMEM, 10% fetal bovine serum, 0.1 mM NEAA, 25 mM HEPES buffer, 100 U/mL penicillin-streptomycin, 5 μg/mL blasticidin and 400 μg/mL G418 geneticin.
The cells were passaged three times a week and digested with TrypLE Express to maintain a fusion degree of about 40% to 80%. Before testing, the cells were seeded at the density of 5*10^5 cells/petri dish with a diameter of 6 cm and the cells were induced with 1 μg/ml doxycycline for 48 hours.
The test concentration of the compound solution was 30, 10, 2, 0.5, 0.1 μM after 1000-fold dilution and the final concentration of DMSO was in the range of 0.1%.
The manipulator was adjusted to move the electrode tip to the cell surface to form a high sealing. Liquid connection potential and fast capacitance were compensated, and the cell membrane was broken to form a whole cell recording mode. The membrane potential was set as −60 mV to ensure that the HERG channel was not opened. Cslow on the amplifier was used to eliminate the peak of capacity current. Holding voltage was set as […]. The leakage current test was performed at −80 mV for 500 ms. +30 mV was depolarized for 4.8 seconds, and HERG channel was activated. The voltage was restored to −50 mV for 5.2 seconds, and the tail current was observed. Peak current suppression=[1−(peak tail currentinhibitor−peak tail currentpositive control)/(peak tail currentblank−peak tail currentpositive control)]*100
The dose response curve of hERG current inhibition rate versus the concentration of the tested compound was plotted by using Graphpad Prism 8.0 software.

IC50 (SHP2) [nM]	IC50 [1] [nM]	SMILES	IC50 (hERG channel) [nM]
9	88	Cc1nc(N2CCC3(CC2)Cc2ccccc2[C@H]3N)c(CO)nc1-c1cccc(Cl)c1Cl [Compound 1, (S)-(3-(1-amino-1,3-dihydrospiro[indene-2,4′-piperidin]-1′-yl)-6-(2,3-dichlorophenyl)-5-methylpyrazin-2-yl)methanol]	< 100
35	84	Cc1nc(N2CCC3(CC2)Cc2ccc(C#N)cc2[C@H]3N)c(CO)nc1-c1cccc(Cl)c1Cl [Compound 2, (S)-1-amino-1′-(5-(2,3-dichlorophenyl)-3-(hydroxymethyl)-6-methylpyrazin-2-yl)-1,3-dihydrospiro[indene-2,4′-piperidine]-6-carbonitrile]	
	1.6	Cc1nc(N2CCC3(CC2)Cc2ncccc2[C@H]3N)c(CO)nc1-c1cccc(Cl)c1Cl [Compound 13, (S)-(3-(5-amino-5,7-dihydrospiro[cyclopenta[b]pyridine-6,4′-piperidin]-1′-yl)-6-(2,3-dichlorophenyl)-5-methylpyrazin-2-yl)methanol]	< 100
	11	Cc1ccc2c(c1)[C@@H](N)C1(CCN(c3nc(C)c(-c4ccnc(Cl)c4Cl)nc3CO)CC1)C2 [Compound 21]	3030
	> 1000	Cc1nc(N2CCC3(CC2)Cc2ccccc2[C@H]3N)c(CO)nc1-c1cncc(Cl)c1 [Compound 44]	
	> 1000	Cc1nc(N2CCC3(CC2)Cc2ccccc2[C@H]3N)c(CO)nc1-c1cnc(N)cc1Cl [Compound 45]	
	379	COc1ccc(-c2nc(CO)c(N3CCC4(CC3)Cc3ncccc3[C@H]4N)nc2C)c(Cl)c1 [Compound 46]	
	30	Cc1nc(N2CCC3(CC2)Cc2ccccc2[C@H]3N)c(CO)nc1-c1cc(N)nc(Cl)c1Cl [Compound 47]	4290
	> 1000	Cc1ccc2c(c1)[C@H](N)C1(CCN(c3nc(C)c(-c4ccnc(Cl)c4Cl)nc3CO)CC1)C2 [Compound 48]	
	28	Cc1cnc2c(c1)[C@@H](N)C1(CCN(c3nc(C)c(-c4ccnc(Cl)c4Cl)nc3CO)CC1)C2 [Compound 49]	1800
	453	Cc1cnc2c(c1)[C@H](N)C1(CCN(c3nc(C)c(-c4ccnc(Cl)c4Cl)nc3CO)CC1)C2 [Compound 50]	
	81	Cc1cnc2c(c1)[C@@H](N)C1(CCN(c3nc(C)c(-c4ccncc4Cl)nc3CO)CC1)C2 [Compound 51]	
	> 1000	Cc1cnc2c(c1)[C@H](N)C1(CCN(c3nc(C)c(-c4ccncc4Cl)nc3CO)CC1)C2 [Compound 52]	
	328	COc1ccc(-c2nc(CO)c(N3CCC4(CC3)Cc3ccccc3[C@H]4N)nc2C)c(Cl)c1Cl [Compound 53]	
	83	Cc1nc(N2CCC3(CC2)Cc2ccccc2[C@H]3N)c(CO)nc1-c1cc(N)nc(C)c1Cl [Compound 54]	
	> 1000	Cc1ccnc(-c2nc(CO)c(N3CCC4(CC3)Cc3ccccc3[C@H]4N)nc2C)c1Cl [Compound 55]	
	182	COc1ccc(-c2nc(CO)c(N3CCC4(CC3)Cc3ccccc3[C@H]4N)nc2C)c(Cl)n1 [Compound 56]	
	> 1000	Cc1nc(N2CCC3(CC2)Cc2ccccc2[C@H]3N)c(CO)nc1-c1ccc(=O)[nH]c1Cl [Compound 57]	
	> 1000	CNc1cc(Cl)c(-c2nc(CO)c(N3CCC4(CC3)Cc3ccccc3[C@H]4N)nc2C)cn1 [Compound 58]	
	115	CNc1ccc(-c2nc(CO)c(N3CCC4(CC3)Cc3ccccc3[C@H]4N)nc2C)c(Cl)c1C(F)(F)F [Compound 59]	
	75	Cc1cnc2c(c1)[C@@H](N)C1(CCN(c3nc(C)c(-c4ccnc(C)c4Cl)nc3CO)CC1)C2 [Compound 60]	
	63	Cc1cncc(-c2nc(CO)c(N3CCC4(CC3)Cc3ccccc3[C@H]4N)nc2C)c1Cl [Compound 61]	
	15	Cc1nc(N2CCC3(CC2)Cc2ccccc2[C@H]3N)c(CO)nc1-c1ccnc(C(F)(F)F)c1Cl [Compound 62]	4230
	40	Cc1ccc2c(c1)[C@@H](N)C1(CCN(c3nc(C)c(-c4cc(N)nc(Cl)c4Cl)nc3CO)CC1)C2 [Compound 63]	
	22	Cc1cnc2c(c1)[C@@H](N)C1(CCN(c3nc(C)c(-c4cc(N)nc(Cl)c4Cl)nc3CO)CC1)C2 [Compound 64]	6130
	530	Cc1cnc2c(c1)[C@@H](N)C1(CCN(c3nc(C)c(-c4ccnc(Cl)c4Cl)nc3C(C)O)CC1)C2 (some centres unmarked) [Compound 68]	
	65.9	COc1ccc2c(c1)[C@@H](N)C1(CCN(c3nc(C)c(-c4ccnc(Cl)c4Cl)nc3CO)CC1)C2 [Compound 72]	2590
	25	COc1nccc(-c2nc(CO)c(N3CCC4(CC3)Cc3ncc(C)cc3[C@H]4N)nc2C)c1Cl [Compound 76]	2110
	33	Cc1nc(N2CCC3(CC2)Cc2ccccc2[C@H]3N)c(CO)nc1-c1ccnc(C#N)c1Cl [Compound 77]	620
